Values quoted from earlier work, collected in patent US10851223B2, “Use of a cyclodextrin polycondensate or a composition comprising such a polycondensate, as a capturing agent” (BIOSTART, priority 2016, dated 2020).

Settings: octanol/water

`Clc1ccc(Cl)c(-c2cc(Cl)c(Cl)cc2Cl)c1` [PCB 101] and `Clc1ccc(-c2cc(Cl)c(Cl)cc2Cl)cc1Cl` [PCB 118] are within 0.2 log units of each other in “Log Kow” value: 6.8 for the first, 6.84 for the second.

Going from `Clc1ccc(Cl)c(-c2cc(Cl)ccc2Cl)c1` [PCB 52] to `Clc1ccc(-c2ccc(Cl)cc2Cl)cc1` [PCB 28], the “Log Kow” value falls from 6.12 to 5.62.

Compared with `c1ccc2c(c1)c1cccc3ccc4cccc2c4c31` [benzopyrene], `Clc1cc(Cl)c(-c2ccc(Cl)c(Cl)c2Cl)cc1Cl` [PCB 138] is higher in “Log Kow” value: 6.07 for the first, 7.25 for the second.

Compared with `CCCCC(CC)COC(=O)c1ccccc1C(=O)OCC(CC)CCCC` (stereo not shown) [di(2-ethylhexyl)-phthalate], `CN(C)C(=O)Nc1ccc(Cl)c(Cl)c1` [Diuron] is lower in “Log Kow” value: 7.6 for the first, 2.68 for the second.

Going from `Clc1cc(Cl)c(-c2cc(Cl)c(Cl)cc2Cl)cc1Cl` [PCB 153] to `Clc1cc(Cl)c(-c2cc(Cl)c(Cl)c(Cl)c2Cl)cc1Cl` [PCB 180], the “Log Kow” value rises from 7.21 to 7.7.
